Molecular target: Solute carrier family 22 member 4 (Homo sapiens) (UniProt Q9H015)
Assay: SLC22A4 substrate-evoked membrane depolarization, dose response, membrane potential dye, HEK-293 overexpressing cells (AID 1794816)
Conditions: HEK-293 SLC22A4 OE, FLIPR membrane potential dye

Solute carrier family 22 member 4 (Homo sapiens), sequence (Q9H015 whole entry, looked up): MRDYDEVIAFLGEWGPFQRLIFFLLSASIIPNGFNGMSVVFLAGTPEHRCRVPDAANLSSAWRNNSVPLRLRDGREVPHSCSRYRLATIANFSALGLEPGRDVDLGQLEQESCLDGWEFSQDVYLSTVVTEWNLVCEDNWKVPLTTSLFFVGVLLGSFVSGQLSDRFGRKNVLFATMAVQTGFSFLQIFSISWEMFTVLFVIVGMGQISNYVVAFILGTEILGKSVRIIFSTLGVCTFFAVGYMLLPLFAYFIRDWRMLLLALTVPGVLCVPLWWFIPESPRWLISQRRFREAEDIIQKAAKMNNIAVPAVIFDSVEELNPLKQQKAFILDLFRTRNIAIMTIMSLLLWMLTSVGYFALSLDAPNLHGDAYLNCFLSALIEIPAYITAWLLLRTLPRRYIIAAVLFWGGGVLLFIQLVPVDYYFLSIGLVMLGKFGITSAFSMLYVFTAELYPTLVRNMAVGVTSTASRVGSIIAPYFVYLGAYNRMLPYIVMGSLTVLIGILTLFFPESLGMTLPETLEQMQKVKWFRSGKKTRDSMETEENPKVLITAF

- EC50: 40 µM
SMILES: C[N+](C)(C)[C@@H](Cc1c[nH]c(=S)[nH]1)C(=O)[O-]

Source: PubChem BioAssay AID1794816
